Like-named read-outs stand apart in the source and are kept apart here.
Assays:
[1] = target: T1, MOR (Rattus norvegicus, UniProt P33535); assay: Opioid receptor binding, MOR, rat brain membranes
T1 construct: from tissue

[2] = target: T2, DOR (Rattus norvegicus, UniProt P33533); assay: Opioid receptor binding, DOR, rat brain membranes
T2 construct: from tissue

[3] = target: T3, KOR (Cavia porcellus, UniProt P41144); assay: Opioid receptor binding, KOR, guinea pig brain membranes
T3 construct: from tissue

[4] = Binding Ki (nM) MOR, in vitro binding assay, rat brain membranes
[5] = Binding Ki (nM) DOR, in vitro binding assay, rat brain membranes
[6] = Binding Ki (nM) KOR, in vitro binding assay, guinea pig brain membranes
[7] = Binding Ki DOR, Table 1-4, rat brain membranes
[8] = Binding Ki KOR, Table 1-4, guinea pig brain membranes
[9] = Binding Ki MOR, Table 1-4, rat brain membranes
[10] = Binding Ki MOR, Table 1-6, rat brain membranes
[11] = Binding Ki MOR, Table 2-6, rat brain membranes
[12] = Binding Ki DOR, Table 1-6, rat brain membranes
[13] = Binding Ki DOR, Table 2-6, rat brain membranes
[14] = Binding Ki KOR, Table 1-6, guinea pig brain membranes
[15] = Binding Ki KOR, Table 2-6, guinea pig brain membranes
[16] = in vitro binding assay, rat brain membranes, read-out: Binding Ki (nM) DOR

T3 sequence (P41144 whole entry): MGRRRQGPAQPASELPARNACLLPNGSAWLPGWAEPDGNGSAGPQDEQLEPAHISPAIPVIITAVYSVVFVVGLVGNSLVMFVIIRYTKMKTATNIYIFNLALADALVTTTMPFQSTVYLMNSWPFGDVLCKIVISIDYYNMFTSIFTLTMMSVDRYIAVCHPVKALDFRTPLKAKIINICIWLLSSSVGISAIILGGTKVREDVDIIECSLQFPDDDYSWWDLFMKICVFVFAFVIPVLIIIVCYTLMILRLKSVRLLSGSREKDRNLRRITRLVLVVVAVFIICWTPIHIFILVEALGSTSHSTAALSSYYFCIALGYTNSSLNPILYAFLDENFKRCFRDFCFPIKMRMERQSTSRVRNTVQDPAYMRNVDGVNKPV
T1 sequence (P33535 whole entry): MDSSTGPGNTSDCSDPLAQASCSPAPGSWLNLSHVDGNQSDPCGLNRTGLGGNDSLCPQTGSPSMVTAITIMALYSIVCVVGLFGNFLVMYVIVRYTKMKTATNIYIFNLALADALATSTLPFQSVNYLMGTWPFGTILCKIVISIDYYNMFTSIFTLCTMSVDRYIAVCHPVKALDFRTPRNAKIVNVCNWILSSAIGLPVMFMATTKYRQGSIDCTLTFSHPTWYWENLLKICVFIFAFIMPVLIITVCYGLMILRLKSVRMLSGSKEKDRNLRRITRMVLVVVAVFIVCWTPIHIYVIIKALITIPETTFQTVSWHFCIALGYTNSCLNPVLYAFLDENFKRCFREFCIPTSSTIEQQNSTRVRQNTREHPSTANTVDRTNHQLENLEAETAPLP
T2 sequence (P33533 whole entry): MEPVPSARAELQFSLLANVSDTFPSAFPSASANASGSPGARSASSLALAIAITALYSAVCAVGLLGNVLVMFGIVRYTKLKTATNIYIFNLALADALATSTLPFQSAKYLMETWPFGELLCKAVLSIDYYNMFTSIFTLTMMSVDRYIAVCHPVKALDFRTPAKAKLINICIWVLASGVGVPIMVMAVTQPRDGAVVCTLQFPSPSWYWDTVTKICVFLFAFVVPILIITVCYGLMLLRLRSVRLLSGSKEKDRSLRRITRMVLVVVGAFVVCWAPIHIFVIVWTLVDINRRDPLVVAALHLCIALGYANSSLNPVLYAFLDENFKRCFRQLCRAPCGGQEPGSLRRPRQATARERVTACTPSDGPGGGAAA

For `CCC(C)C(NC1CCC2(OC)C3Cc4ccc(O)c5c4C2(CCN3C)C1O5)C(=O)OC(C)(C)C` (single isomer, unassigned) [42-t-Bu ester], the Ki [1, 4] was 1.04 nM, the Ki [2, 5] was 1 nM and the Ki [3, 6] was 29.2 nM.

For `CCC(C)C(NC1CCC2(OC)C3Cc4ccc(O)c5c4C2(CCN3C)C1O5)C(=O)OC(C)(C)C` (single isomer, unassigned) [43-t-Bu ester], the Ki [1, 4] was 2.87 nM, the Ki [2, 5] was 2.12 nM and the Ki [3, 6] was 208 nM.

Molecule `COC12CCC(NC(C)C(=O)O)C3Oc4c(O)ccc5c4C31CCN(C)C2C5` (single isomer, unassigned) [Compound 1] has a Ki [2, 5] of 26.9 nM, a Ki [2, 7] of 26.9 nM and a Ki [3, 6] of 142 nM. For the same molecule, the Ki [3, 8] was 142 nM.

With `COC12CCC(NC(C)C(=O)O)C3Oc4c(O)ccc5c4C31CCN(C)C2C5` (single isomer, unassigned) [Compound 2] the Ki [2, 5] was 7.71 nM, the Ki [2, 7] was 7.71 nM and the Ki [3, 6] was 63.7 nM. The Ki [3, 8] was 63.7 nM.

Work on `COC12CCC(NCCC(=O)O)C3Oc4c(O)ccc5c4C31CCN(C)C2C5` (single isomer, unassigned) [Compound 21] yielded a Ki [1, 4] of 1.3 nM, a Ki [1, 9] of 1.3 nM and a Ki [2, 5] of 60 nM. For the same molecule, the Ki [2, 7] was 60 nM, the Ki [3, 6] was 182 nM and the Ki [3, 8] was 182 nM.

With `COC12CCC(NCCC(=O)O)C3Oc4c(O)ccc5c4C31CCN(C)C2C5` (single isomer, unassigned) [Compound 22] the Ki [1, 4] was 1.04 nM, the Ki [1, 9] was 1.04 nM and the Ki [2, 5] was 13.9 nM. It also gave a Ki [2, 7] of 13.9 nM, a Ki [3, 6] of 71.4 nM and a Ki [3, 8] of 71.4 nM.

For `COC12CCC(NC(C(=O)O)C(C)C)C3Oc4c(O)ccc5c4C31CCN(C)C2C5` (single isomer, unassigned) [Compound 28], the Ki [1, 4] was 3.16 nM, the Ki [1, 9] was 3.16 nM and the Ki [2, 5] was 3.91 nM. The Ki [2, 7] was 3.91 nM, the Ki [3, 6] was 325 nM and the Ki [3, 8] was 325 nM.

`COC12CCC(NC(C(=O)O)C(C)C)C3Oc4c(O)ccc5c4C31CCN(C)C2C5` (single isomer, unassigned) [Compound 29] gave a Ki [1, 4] of 3.04 nM, a Ki [1, 9] of 3.04 nM and a Ki [2, 5] of 3.52 nM. It also gave a Ki [2, 7] of 3.52 nM, a Ki [3, 6] of 305 nM and a Ki [3, 8] of 305 nM.

For `COC12CCC(NC(C(=O)O)C(C)C)C3Oc4c(O)ccc5c4C31CCN(C)C2C5` (single isomer, unassigned) [Compound 30], the Ki [1, 4] was 1.7 nM, the Ki [1, 9] was 1.7 nM and the Ki [2, 5] was 1.93 nM. The Ki [2, 7] was 1.93 nM, the Ki [3, 6] was 202 nM and the Ki [3, 8] was 202 nM.

Work on `COC12CCC(NC(C(=O)O)C(C)C)C3Oc4c(O)ccc5c4C31CCN(C)C2C5` (single isomer, unassigned) [Compound 31] yielded a Ki [1, 4] of 1.02 nM, a Ki [1, 9] of 1.02 nM and a Ki [2, 5] of 1.68 nM. The Ki [2, 7] was 1.68 nM, the Ki [3, 6] was 159 nM and the Ki [3, 8] was 159 nM.

`COC12CCC(NC(C)C(=O)O)C3Oc4c(O)ccc5c4C31CCN(C)C2C5` (single isomer, unassigned) [Compound 53] gave a Ki [2, 7] of 10.4 nM and a Ki [3, 8] of 71.5 nM.

`COC12CCC(NC(C)C(=O)O)C3Oc4c(O)ccc5c4C31CCN(C)C2C5` (single isomer, unassigned) [Compound 54] was tested, and the Ki [2, 7] was 11.3 nM and the Ki [3, 8] was 142 nM.

Molecule `COC12CCC(NC(C(=O)O)C(C)C)C3Oc4c(O)ccc5c4C31CCN(CC1CC1)C2C5` (single isomer, unassigned) [Compound 68] has a Ki [1, 10] of 0.44 nM, a Ki [1, 11] of 0.44 nM and a Ki [2, 12] of 0.53 nM. The Ki [2, 13] was 0.53 nM, the Ki [3, 14] was 3.34 nM and the Ki [3, 15] was 3.34 nM.

Molecule `COC12CCC(NC(C(=O)O)C(C)C)C3Oc4c(O)ccc5c4C31CCN(CC1CC1)C2C5` (single isomer, unassigned) [Compound 69] has a Ki [1, 10] of 0.66 nM, a Ki [1, 11] of 0.66 nM and a Ki [2, 12] of 1.35 nM. The Ki [2, 13] was 1.35 nM, the Ki [3, 14] was 3 nM and the Ki [3, 15] was 3 nM.

`COC12CCC(NC(C(=O)O)C(C)C)C3Oc4c(O)ccc5c4C31CCN(CC1CC1)C2C5` (single isomer, unassigned) [Compound 70] gave a Ki [1, 10] of 0.62 nM, a Ki [1, 11] of 0.62 nM and a Ki [2, 12] of 0.71 nM. For the same molecule, the Ki [2, 13] was 0.71 nM, the Ki [3, 14] was 3.54 nM and the Ki [3, 15] was 3.54 nM.

`COC12CCC(NC(C(=O)O)C(C)C)C3Oc4c(O)ccc5c4C31CCN(CC1CC1)C2C5` (single isomer, unassigned) [Compound 71] gave a Ki [1, 10] of 1.52 nM, a Ki [1, 11] of 1.52 nM and a Ki [2, 12] of 0.35 nM. It also gave a Ki [2, 13] of 0.35 nM, a Ki [3, 14] of 23 nM and a Ki [3, 15] of 23 nM.

For `CO[C@@]12CC[C@H](N[C@@H](C)C(=O)OC(C)(C)C)[C@@H]3Oc4c(O)ccc5c4[C@@]31CCN(C)[C@@H]2C5` [1-t-Bu ester], the Ki [1, 4] was 0.29 nM, the Ki [2, 5] was 0.41 nM and the Ki [3, 6] was 11.3 nM.

Molecule `CO[C@@]12CC[C@@H](N[C@@H](C)C(=O)OC(C)(C)C)[C@@H]3Oc4c(O)ccc5c4[C@@]31CCN(C)[C@@H]2C5` [2-t-Bu ester] has a Ki [1, 4] of 1.13 nM, a Ki [2, 5] of 1.36 nM and a Ki [3, 6] of 93.6 nM.

For `CO[C@@]12CC[C@H](N[C@@H](Cc3ccccc3)C(=O)OC(C)(C)C)[C@@H]3Oc4c(O)ccc5c4[C@@]31CCN(C)[C@@H]2C5` [3-t-Bu ester], the Ki ([1]; in vitro binding assay, rat brain membranes, read-out: Binding Ki (nM) MOR) was 0.5 nM, the Ki [2, 16] was 0.93 nM and the Ki ([3]; in vitro binding assay, guinea pig brain membranes, read-out: Binding Ki (nM) KOR) was 32.5 nM.

`CO[C@@]12CC[C@@H](N[C@@H](Cc3ccccc3)C(=O)OC(C)(C)C)[C@@H]3Oc4c(O)ccc5c4[C@@]31CCN(C)[C@@H]2C5` [4-t-Bu ester] showed a Ki [1, 4] of 2.56 nM and a Ki [2, 16] of 2.66 nM.
